From article PMC6361973, “The NOP-1 peptide derived from the central regulator of ethylene signaling EIN2 delays floral senescence in cut flowers” (Scientific Reports, 2019)

Legend:
cut roses (Rosa hybrida) = assay: Senescence / vase life of cut roses; format: in vivo; conditions: 1 mM silver nitrate or 0.5 mM NOP-1 in vase water; untreated controls ended vase life on day 9; six flowers per treatment
Source text: To clarify whether NOP-1 also has the potential to serve as an inhibitor of senescence in cut flowers, we applied the peptide on cut carnations (Dianthus caryophyllus) and analyzed the effect on floral senescence in this model ethylene response system[9],[13],[17],[30]. In analogy to treatment with the chemical senescence inhibitor STS containing silver ions as active ingredient which target plant ethylene receptors[31] the peptide was directly supplied to the vase water. Senescence was monitored visually throughout the experiment and quantified by changes observed in petal size and/or color (Fig. 1A,B). […]
Figure 2 Effect of small molecule inhibitors of ethylene signaling on flower senescence of cut roses. […] (B) Quantitative analysis of color change in petals after treatment with silver salt, NOP-1 peptide or buffer-only. […]
Cut flowers of carnations (Dianthus caryophyllus) and rose (Rosa hybrida), graded for marketable quality, were obtained from a local flower producer. […] Progression of senescence was recorded photographically for a period of 15 days. […] Changes in petal size and color were quantified using ImageJ (32 bit v1.51t.). Relative discoloration of petals was quantified by drawing multiple lines across each flower (petals only) and calculating the average values for red (R), green (G) and blue (B). […]

[1] = system: cut carnations (Dianthus caryophyllus); assay: Senescence / vase life of cut carnations; format: in vivo
Source text: To clarify whether NOP-1 also has the potential to serve as an inhibitor of senescence in cut flowers, we applied the peptide on cut carnations (Dianthus caryophyllus) and analyzed the effect on floral senescence in this model ethylene response system[9],[13],[17],[30]. In analogy to treatment with the chemical senescence inhibitor STS containing silver ions as active ingredient which target plant ethylene receptors[31] the peptide was directly supplied to the vase water. Senescence was monitored visually throughout the experiment and quantified by changes observed in petal size and/or color (Fig. 1A,B). […] To further substantiate the effect of the peptide biological on floral senescence observed with the carnation model system, we used roses as another species of highly ethylene sensitive ornamental plants. […] The untreated controls completely ended their vase life on day 9 due to these morphological changes.
Figure 1 Effect of small molecule inhibitors of ethylene signaling on flower senescence of cut carnations. (A) Visual images of carnation cut flowers treated with senescence inhibitor silver nitrate or peptide NOP-1. Representative photos of carnation petals treated with 1 mM silver nitrate or 0.5 mM NOP-1 on DAT 0, 3, 6, 9, 12 and 15. […] (B) Quantitative analysis of flower size (left) and petal color change (right) of carnation flowers after treatment with silver salt, NOP-1 peptide or buffer-only. […]
Cut flowers of carnations (Dianthus caryophyllus) and rose (Rosa hybrida), graded for marketable quality, were obtained from a local flower producer. […] Progression of senescence was recorded photographically for a period of 15 days. […] Changes in petal size and color were quantified using ImageJ (32 bit v1.51t.). Relative discoloration of petals was quantified by drawing multiple lines across each flower (petals only) and calculating the average values for red (R), green (G) and blue (B). […] Relative size of flowers was quantified using a macro that specifically recognizes the flower (petals + sepals) but not the flower stem with flower size in pixel² as the output. […]

ethylene biosynthesis = conditions: cited from earlier work
Source text: Consequently, a number of commercial products based o ...

flower senescence = conditions: cited from earlier work; for prevention of the effects of exogenous ethylene on flower senescence: during transport and storage
[2] = biological target: Dianthus caryophyllus ethylene receptor DcETR1 (Dianthus caryophyllus); assay: MST; NOP-1 unlabelled, titrated from 100 µM to 3 nM in 100 mM potassium phosphate buffer, 300 mM NaCl, 0.015% FosCholine-16, to 50 nM Alexa488-labelled DcETR1; Monolith NT.115, 50% MST power; triplicates
Sequence of Dianthus caryophyllus ethylene receptor DcETR1 (Dianthus caryophyllus) (Q9M7M1 other isoform, or with tags, fused parts or gaps): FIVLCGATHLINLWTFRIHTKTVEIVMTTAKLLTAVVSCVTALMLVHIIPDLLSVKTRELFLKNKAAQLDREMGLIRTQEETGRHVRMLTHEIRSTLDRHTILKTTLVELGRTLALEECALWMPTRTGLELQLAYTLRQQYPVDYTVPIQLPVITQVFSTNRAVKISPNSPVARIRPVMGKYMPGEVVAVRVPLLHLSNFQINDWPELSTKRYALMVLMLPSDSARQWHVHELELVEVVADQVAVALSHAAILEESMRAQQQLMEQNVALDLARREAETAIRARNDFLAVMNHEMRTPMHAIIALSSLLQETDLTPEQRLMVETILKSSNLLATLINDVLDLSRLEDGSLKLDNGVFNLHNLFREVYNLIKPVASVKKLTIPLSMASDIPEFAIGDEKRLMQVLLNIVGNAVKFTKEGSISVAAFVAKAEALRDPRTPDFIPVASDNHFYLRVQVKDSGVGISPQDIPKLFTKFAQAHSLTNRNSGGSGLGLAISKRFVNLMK

[3] = biological target: Dianthus caryophyllus ethylene receptor DcETR1 (Dianthus caryophyllus); assay: MST; AtEIN2^479-1294 unlabelled, titrated from 1457.5 nM to 0.7 nM in 50 mM potassium phosphate (pH 7.8), 300 mM NaCl, 0.015% FosCholine-16, to 50 nM Alexa488-labelled DcETR1; Monolith NT.115, 60% MST power; triplicates
[4] = system: carnation ethylene receptor DcETR1; assay: Microscale thermophoresis binding to carnation ethylene receptor DcETR1; set-up: species or system Dianthus caryophyllus; conditions: MST; denatured using 2% (w/v) SDS and 40 mM DTT in the assay buffer; triplicates
Source text: To elucidate the mode of action of NOP-1 on flower senescence and to determine whether the peptide biological works by the same molecular mechanism as determined for NOP-1 controlled ripening delay, we initiated interaction studies of the carnation ethylene receptor DcETR1, the central regulator of the ethylene signaling cascade EIN2 and the NOP-1 peptide. To this end, DcETR1 was cloned in E. coli, expressed and purified according to protocols established in our lab[32] for ethylene receptors from Arabidopsis thaliana, Physcomitrella patens, tomato and apple (Supplementary Fig. S1). […] To determine binding affinity and dissociation constants of the purified recombinant proteins and the NOP-1 peptide we used microscale thermophoresis. […] Consequently, targeting this interaction by small-molecule modulators has the potential to shut down ethylene signaling and related plant responses. Therefore, we tested binding of the ripening delaying peptide NOP-1 identified in previous studies to target the ETR1-EIN2 complex with our purified carnation receptor DcETR1. […] The precise interaction site of NOP-1 at the Arabidopsis ETR1 receptor was recently resolved in our lab by molecular and computational studies. […]

[5] = literature, reference not given

## O=[N+]([O-])[O-].[Ag+] [silver salt, silver nitrate]
Cut roses (Rosa hybrida)
  prolongation of vase life relative to buffer controls, cut roses: 6 to 8 days
[1]; 0.5 mM NOP-1 vs 1 mM silver salt (AgNO3), entire trial period
  efficacy compared with the other treatment, cut carnations (in words): noticeably more efficient in extending the vase life of cut carnations than the peptide biological
[1]; 1 mM silver salt (AgNO3) in vase water, 50 mM Tris/Acetic acid pH 8, 15 days, six flowers
  signs of petal senescence after 15 days, cut carnations: almost no signs of senescence after 15 days
[1]; 1 mM silver salt (AgNO3) in vase water, 50 mM Tris/Acetic acid pH 8, six flowers, vs buffer controls senescent after 6 days
  delay of petal senescence in cut carnations (in words): delays the appearance of these morphological manifestations by several days

## NOCC(=O)O [AOA, amino-oxyacetic acid]
Ethylene biosynthesis
  blocking of ethylene production that accompanies senescence: effective in blocking ethylene production
Flower senescence; [5]
  prevention of the effects of exogenous ethylene on flower senescence: ineffective

## NCCO/C=C/[C@H](N)C(=O)O [AVG, amino-ethoxyvinyl glycine]
Ethylene biosynthesis
  blocking of ethylene production that accompanies senescence: effective in blocking ethylene production
Flower senescence; [5]
  prevention of the effects of exogenous ethylene on flower senescence: ineffective

## CC1=CC1 [1-MCP, 1-methylcyclopropene]
Flower senescence; 0 °C
  inhibition of ethylene action at 0 °C: almost no inhibition
Flower senescence; 20 °C
  inhibition of ethylene action at 20 °C: complete inhibition
Flower senescence; applied on a daily basis, gaseous
  delay of flower senescence on daily application: significantly delayed flower senescence
Flower senescence; repetitive treatments with the gaseous inhibitor
  effect of repetitive treatments on vase life and floral senescence of cut flowers: marked increase in vase life and efficiently blocked floral senescence of cut flower
Flower senescence; single treatment, literature, reference not given
  duration of senescence control compared with silver ions: does not control senescence for as long as silver ions
Flower senescence; very small concentrations
  efficiency as ethylene action inhibitor: highly efficient at very small concentrations

## NOP-1 peptide
[2]
  Kd: 3490 nM

B1: AtEIN2^479-1294 (domain or fragment)
chain: NALSYPSVQEEEIERTETRRNEDESIVRLESRVKDQLDTTSVTSSVYDLPENILMTDQEIRSSPPEERELDVKYSTSQVSSLKEDSDVKEQSVLQSTVVNEVSDKDLIVETKMAKIEPMSPVEKIVSMENNSKFIEKDVEGVSWETEEATKAAPTSNFTVGSDGPPSFRSLSGEGGSGTGSLSRLQGLGRAARRHLSAILDEFWGHLYDFHGQLVAEARAKKLDQLFGTDQKSASSMKADSFGKDISSGYCMSPTAKGMDSQMTSSLYDSLKQQRTPGSIDSLYGLQRGSSPSPLVNRMQMLGAYGNTTNNNNAYELSERRYSSLRAPSSSEGWEHQQPATVHGYQMKSYVDNLAKERLEALQSRGEIPTSRSMALGTLSYTQQLALALKQKSQNGLTPGPAPGFENFAGSRSISRQSERSYYGVPSSGNTDTVGAAVANEKKYSSMPDISGLSMSARNMHLPNNKSGYWDPSSGGGGYGASYGRLSNESSLYSNLGSRVGVPSTYDDISQSRGGYRDAYSLPQSATTGTGSLWSRQPFEQFGVAERNGAVGEELRNRSNPINIDNNASSNVDAEAKLLQSFRHCILKLIKLEGSEWLFGQSDGVDEELIDRVAAREKFIYEAEAREINQVGHMGEPLISSVPNCGDGCVWRADLIVSFGVWCIHRVLDLSLMESRPELWGKYTYVLNRLQGVIDPAFSKLRTPMTPCFCLQIPASHQRASPTSANGMLPPAAKPAKGKCTTAVTLLDLIKDVEMAISCRKGRTGTAAGDVAFPKGKENLASVLKRYKRRLSNKPVGMNQDGPGSRKNVTAYGSLG
[3]
  Kd: 136 nM
[4]
  interaction with chemically denatured DcETR1 (negative control): no interaction
